Structures can show the parent of a compound that is named as a salt.
Legend:
[1] = molecular target: T1, recombinant human Meningioma Expressed Antigen 5 (MGEA5), also referred to as O-GlcNAcase (OGA) (Homo sapiens, UniProt O60502); assay: OGA biochemical assay (inhibition of FM-GlcNAc hydrolysis, fluorescence); settings: FM-GlcNAc substrate; for IC50: 6 h at room temperature, read-out: Enzymatic hOGA, pIC50 (converted); for Emax: read-out: Enzymatic Emax (%)
T1 construct: Full length OGA enzyme was purchased at OriGene (cat #TP322411); purchased OriGene TP322411
T1 sequence (O60502 1-916): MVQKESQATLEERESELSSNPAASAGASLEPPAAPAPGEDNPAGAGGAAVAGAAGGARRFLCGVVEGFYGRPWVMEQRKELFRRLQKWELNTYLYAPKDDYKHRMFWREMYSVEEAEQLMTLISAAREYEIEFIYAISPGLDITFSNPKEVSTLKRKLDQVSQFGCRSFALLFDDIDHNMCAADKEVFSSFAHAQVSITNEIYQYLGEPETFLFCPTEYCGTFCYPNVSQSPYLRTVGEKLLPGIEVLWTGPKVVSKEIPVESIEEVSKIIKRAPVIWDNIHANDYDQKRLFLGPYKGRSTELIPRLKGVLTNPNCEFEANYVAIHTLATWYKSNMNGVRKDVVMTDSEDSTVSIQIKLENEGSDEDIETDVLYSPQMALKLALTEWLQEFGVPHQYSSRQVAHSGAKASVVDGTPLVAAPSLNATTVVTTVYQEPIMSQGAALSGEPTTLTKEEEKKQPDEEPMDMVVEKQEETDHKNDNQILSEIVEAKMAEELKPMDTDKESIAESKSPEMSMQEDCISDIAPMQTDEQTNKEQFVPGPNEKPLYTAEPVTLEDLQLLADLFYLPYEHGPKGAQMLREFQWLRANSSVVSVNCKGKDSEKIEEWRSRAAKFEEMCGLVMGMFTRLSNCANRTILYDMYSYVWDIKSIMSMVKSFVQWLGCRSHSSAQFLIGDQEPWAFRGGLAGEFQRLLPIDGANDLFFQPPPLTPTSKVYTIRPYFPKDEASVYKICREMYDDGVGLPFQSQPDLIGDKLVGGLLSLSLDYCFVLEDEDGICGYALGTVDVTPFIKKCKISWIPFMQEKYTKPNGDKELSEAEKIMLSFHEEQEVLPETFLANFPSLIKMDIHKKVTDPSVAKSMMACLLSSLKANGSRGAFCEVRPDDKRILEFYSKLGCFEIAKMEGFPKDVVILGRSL
Method in brief: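 Full-length human OGA (2 nM) pre-incubated 60 min at room temperature with compound, then FM-GlcNAc (100 µM final) added in citrate/phosphate buffer pH 7.2 with 0.005% Tween-20; 6 h at room temperature, stopped with carbonate pH 11.0. Fluorescein read at 485/538 nm; IC50 and Hill coefficient from curve fit.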

[2] = molecular target: T2, OGA (Homo sapiens, UniProt O60502); assay: OGA cellular assay (ICC detection of O-GlcNAcylated proteins in HEK293 cells inducible for P301L mutant human Tau); assay type: cell-based; settings: for Emax: HEK293, HEK293 cells inducible for P301L mutant human Tau; for EC50: read-out: Cellular hOGA, pEC50 (converted)
T2 construct: endogenous in cells; host or cells: HEK293 cells inducible for P301L mutant human Tau (isoform 2N4R)
T2 sequence (O60502 1-916): T1 sequence (O60502 1-916)
Method in brief: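 HEK293 cells inducible for P301L human Tau (2N4R), in low-glucose medium, treated 6 h with compounds at 0.2% DMSO. After PFA fixation, O-GlcNAcylated proteins immunostained (CTD110.6), intensity imaged at 488 nm, Hoechst nuclei counted for toxicity. IC50 via non-linear regression; Thiamet G 200 uM as maximum.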

[3] = maximum defined by Thiamet G at 200 uM
[4] = HEK293 cells inducible for P301L mutant human Tau, 6 hours incubation, ICC O-GlcNAcylation

Cc1cc(C[C@H]2CCN(C(C)c3ccc4c(c3)OCCN4C)C2)cc(C)n1 (some centres unmarked) (as salt: HCl) [Product 1]
melting point: 297.5 °C

Cc1cc(CC2(C)CCN(C(C)c3ccc4c(n3)OCCO4)C2)cc(C)n1 (centres unmarked) [Product 58]
IC50 [1]: 0.316 µM
Emax ([1]; maximal effect): 100%
Emax [2, 3]: 17%
EC50 [2, 4]: > 1 µM

Cc1cc(CC2(C)CCN(C(C)c3ccc4c(n3)OCCO4)C2)cc(C)n1 (centres unmarked) [Product 59]
IC50 [1]: 0.398 µM
Enzymatic Emax (%) ([1]; maximal effect): 97%
Cellular hOGA; pEC50 [2, 4]: <6
Cellular Emax (%) ([2]; HEK293 cells inducible for P301L mutant human Tau, maximum defined by Thiamet G at 200 uM): 34%

Cc1ncc(O[C@@H]2CCN(C(C)c3ccc4c(n3)OCCO4)C2)cn1 (some centres unmarked) [Product 62]
IC50 [1]: 2.51 µM
Emax ([1]; maximal effect): 86%
Emax [2, 3]: 1%
EC50 [2, 4]: > 1 µM

Cc1cc(O[C@@H]2CCN(C(C)c3nc4c(cc3F)OCCO4)C2)ccn1 (some centres unmarked) [Product 125]
IC50 [1]: 0.158 µM
Emax ([1]; maximal effect): 89%
Emax [2, 3]: 48%
EC50 [2, 4]: 0.501 µM

Cc1ncc(O[C@@H]2CCN(C(C)c3nc4c(cc3F)OCCO4)C2)nc1C (some centres unmarked) [Product 126]
IC50 [1]: 0.1 µM
Emax ([1]; maximal effect): 94%
Emax [2, 3]: 73%
EC50 [2, 4]: 0.501 µM

CC(c1nc2c(cc1F)OCCO2)N1CC[C@@H](Oc2ccc(C(F)(F)F)nc2)C1 (some centres unmarked) [Product 127]
IC50 [1]: 0.2 µM
Emax ([1]; maximal effect): 96%
Emax [2, 3]: 26%
EC50 [2, 4]: > 1 µM

Cc1cc(O[C@@H]2CCN(C(C)c3nc4c(cc3F)OCCO4)C2)nc(C)n1 (some centres unmarked) [Product 128]
IC50 [1]: 0.0501 µM
Emax ([1]; maximal effect): 95%
Emax [2, 3]: 59%
EC50 [2, 4]: 0.437 µM

Cc1cc(O[C@@H]2CCN(C(C)c3nc4c(cc3F)OCCO4)C2)cnc1C (some centres unmarked) [Product 129]
IC50 [1]: 0.2 µM
Emax ([1]; maximal effect): 91%
Emax [2, 3]: 45%

Reference: patent US20210277015A1, “OGA INHIBITOR COMPOUNDS” (Janssen Pharmaceutica NV, priority 2018, published 2021)
